The subject of series [1] is Ca2+/calmodulin-dependent protein kinase II (CaMKII). The settings on record: cited from earlier work.
In another series the test system is PKC. The following applies: 1 μM; cited from earlier work.
For the next series, the system named is PKA. The following applies: 1 μM; cited from earlier work.
The next series has as its target CaMKIV (Homo sapiens, UniProt Q16566). The settings on record: 1 μM; cited from earlier work.
Series [2] can be described thus: LPS challenge study in healthy smokers: safety and tolerability (adverse events). As for the experimental part:
Period/sequence effects were analyzed to determine potential impact of treatment order.
First multi-day dosing in humans employed a single low dose of 2.25 mg, extrapolated from animal studies (37.5 μg/kg, based on 60 kg human).
The primary study endpoints were safety and tolerability following first repeat administration and induced sputum inflammatory biomarkers interleukin-6 (IL-6), interleukin-1β (IL-1β), interleukin-8 (IL-8) and tumor necrosis factor alpha (TNFα) following inhaled LPS (30 μg) challenge, day 5.

The conditions of series [3]: inhaled, even at high doses.
The conditions of series [4]: following repeat dosing.
A short description of another series: in vitro. The settings on record: cells (cell type not stated).
Another series has as its system Rat bowel anastomosis. The settings on record: vs placebo; cited from earlier work.

Where a SMILES comes first, the peptide text is derived from it.

CaMKIV, sequence (Q16566 whole entry, species assumed): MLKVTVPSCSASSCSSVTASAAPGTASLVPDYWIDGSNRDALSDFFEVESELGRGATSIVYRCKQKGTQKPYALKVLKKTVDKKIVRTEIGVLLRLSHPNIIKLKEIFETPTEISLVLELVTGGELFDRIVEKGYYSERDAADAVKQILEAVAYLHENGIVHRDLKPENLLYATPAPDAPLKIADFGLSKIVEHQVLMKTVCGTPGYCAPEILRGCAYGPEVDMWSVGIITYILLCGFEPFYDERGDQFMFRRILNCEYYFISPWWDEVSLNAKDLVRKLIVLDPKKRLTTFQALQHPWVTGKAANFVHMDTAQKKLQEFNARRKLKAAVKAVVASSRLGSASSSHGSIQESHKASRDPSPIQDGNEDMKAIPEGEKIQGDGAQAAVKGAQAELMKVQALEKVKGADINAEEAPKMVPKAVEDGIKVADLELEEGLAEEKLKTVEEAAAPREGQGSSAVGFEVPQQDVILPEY

One may read the IC50 as the concentration needed to halve the response being measured. “autocamtide-2 related inhibitory peptide [AIP]”: the CaMKII activity entry in series [1] (1 μM) is listed as “inhibited completely”. In addition, the IC50 in series [1] (CaMKII) is 100 nM. Also, the PKC activity result in the series on PKC is given as “not affected”. Besides, in the series with PKA, the PKA activity entry is given as “not affected”. Besides, at CaMKIV, the CaMKIV activity entry is “not affected”.

In general, half-life refers to the time needed for the level to fall by half in the phase considered. As to `CC(C)C[C@H](NC(=O)[C@H](C)NC(=O)[C@H](CCCCN)NC(=O)[C@H](C)NC(=O)[C@H](CCCNC(=N)N)NC(=O)[C@H](C)NC(=O)[C@H](CCC(N)=O)NC(=O)[C@H](CCCNC(=N)N)NC(=O)[C@H](C)NC(=O)[C@H](C)NC(=O)[C@H](C)NC(=O)[C@H](CCCNC(=N)N)NC(=O)[C@H](C)NC(=O)[C@@H](N)Cc1ccc(O)cc1)C(=O)N[C@@H](C)C(=O)N[C@@H](CCCNC(=N)N)C(=O)N[C@@H](CCC(N)=O)C(=O)N[C@@H](CC(C)C)C(=O)NCC(=O)N[C@H](C(=O)N[C@@H](C)C(=O)N[C@@H](C)C(=O)O)C(C)C` [MMI-0100] (H-YARAAARQARAKALARQLGVAA-OH), in series [2] (N = 22), the “Any AE leading to treatment D/C, Patients %” value was “(0%)”; the “Any AE leading to treatment D/C, Patients N” value came to 0; the “Any TEAE, Patients %” value is recorded as “(40.9%)”; the “Any TEAE, Patients N” value is listed as 9. Further, in series [2] (N = 22), the “Deaths, Patients %” value is reported as “(0%)”; the “Deaths, Patients N” value is 0; the “Mild TEAE, Patients %” value is recorded as “(27.3%)”; the “Mild TEAE, Patients N” value was 6. Also, in [2] (N = 22), the “Moderate TEAE, Patients %” value is “(18.2%)”; the “Moderate TEAE, Patients N” value came out at 4; the “Severe or life threatening TEAE, Patients %” value was “(0%)”; the “Severe or life threatening TEAE, Patients N” value is listed as 0. Besides, in series [2] (Safety Population N = 22), the “Any serious treatment emergent adverse event, % of subjects” value was “(0.5%)”; the “Any serious treatment emergent adverse event, subjects” value is 0; the “Concussion (serious TEAE), % of subjects” value is listed as “(0%)”; the “Concussion (serious TEAE), subjects” value came to 0. For the same compound, in [2] (Safety Population N = 22), the “Injury, poisoning and procedural complications (serious TEAE), % of subjects” value is listed as “(0%)”; the “Injury, poisoning and procedural complications (serious TEAE), subjects” value worked out at 0; the “Joint dislocation (serious TEAE), % of subjects” value is on record as “(0%)”; the “Joint dislocation (serious TEAE), subjects” value is 0. Besides, the “Number of serious treatment emergent adverse events” value in series [2] (Safety Population N = 22) turned out to be 0. Moreover, the safety and tolerability entry in [2] (first repeat administration, 2.25 mg inhaled, 5 days) was “safe and well-tolerated”. Moreover, in [3], the MMI-0100 plasma concentrations result is “little to no detectable”. Besides, the “effect on lung function (FEV1)” value in series [4] was “no deleterious effect”. Besides, in “in vitro”, the half-life is roughly 77 h. Further, in the series on Rat bowel anastomosis, the “healing (integrity of anastomosis)” value was “healing (integrity of anastomosis) unaffected”.

The record behind these values is patent US20190134153A1, “IMMUNOMODULATORY EFFECT OF INHALED KINASE INHIBITOR PEPTIDES IN LUNG” (MOERAE MATRIX, INC., priority 2017, published 2019).
